Results as given in publication PMC6294118 (Pharmaceutical research, 2018).

Assays:
[1] = target: T1, hOCT2 (Homo sapiens, UniProt O15244); assay: Inhibition of hOCT2-mediated morphine uptake in HEK293-hOCT2 cells; assay type: cell-based; settings: for Cmax,unbound/IC50 (hOCT2): ratio of literature Cmax,unbound to hOCT2 IC50
T1 sequence (O15244 1-555): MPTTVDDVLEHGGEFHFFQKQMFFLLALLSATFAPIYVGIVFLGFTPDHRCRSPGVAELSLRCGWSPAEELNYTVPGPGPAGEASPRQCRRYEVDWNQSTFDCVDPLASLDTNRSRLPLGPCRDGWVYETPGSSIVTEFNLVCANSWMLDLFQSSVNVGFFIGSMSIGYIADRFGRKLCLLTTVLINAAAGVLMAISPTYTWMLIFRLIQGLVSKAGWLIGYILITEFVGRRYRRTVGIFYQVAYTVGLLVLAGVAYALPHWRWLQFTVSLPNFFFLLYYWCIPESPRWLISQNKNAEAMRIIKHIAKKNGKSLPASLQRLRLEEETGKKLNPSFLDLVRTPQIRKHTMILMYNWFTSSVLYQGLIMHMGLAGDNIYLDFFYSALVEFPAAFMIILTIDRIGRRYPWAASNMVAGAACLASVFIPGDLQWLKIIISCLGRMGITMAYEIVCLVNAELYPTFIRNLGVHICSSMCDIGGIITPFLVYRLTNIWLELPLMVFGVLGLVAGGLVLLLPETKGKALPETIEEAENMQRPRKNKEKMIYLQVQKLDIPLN

[2] = target: T2, hOCT1 (Homo sapiens, UniProt O15245); settings: for Cmax,unbound/IC50 (hOCT1): ratio of literature Cmax,unbound to hOCT1 IC50; for Cmax,unbound/IC50 (hOCT1, second ratio column): ratio to hOCT1 IC50, the values fit Cmax port,unbound/IC50
T2 sequence (O15245 1-554): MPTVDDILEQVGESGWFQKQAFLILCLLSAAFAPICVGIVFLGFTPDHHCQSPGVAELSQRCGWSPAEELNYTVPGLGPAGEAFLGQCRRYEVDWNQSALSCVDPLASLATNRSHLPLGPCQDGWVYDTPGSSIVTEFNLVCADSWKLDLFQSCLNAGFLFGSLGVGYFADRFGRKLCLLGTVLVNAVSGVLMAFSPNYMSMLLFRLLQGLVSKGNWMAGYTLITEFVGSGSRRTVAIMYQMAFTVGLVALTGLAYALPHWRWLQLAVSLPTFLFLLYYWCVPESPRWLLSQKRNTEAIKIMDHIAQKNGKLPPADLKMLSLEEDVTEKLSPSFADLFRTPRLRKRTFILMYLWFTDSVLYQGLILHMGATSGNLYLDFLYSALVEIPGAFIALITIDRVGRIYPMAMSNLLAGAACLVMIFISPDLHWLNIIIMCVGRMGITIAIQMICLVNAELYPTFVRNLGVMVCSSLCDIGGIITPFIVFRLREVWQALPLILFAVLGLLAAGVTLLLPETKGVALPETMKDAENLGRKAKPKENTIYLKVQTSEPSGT

[3] = target: T2, hOCT1; assay: cell-based
[4] = cited from earlier work; for Cmax port,unbound (maximal unbound plasma concentration in the portal vein): in vivo

| SMILES | IC50 [1] [nM] | Cmax,unbound/IC50 (hOCT2) [1] | Cmax,unbound/IC50 (hOCT1) [2] | Cmax,unbound/IC50 (hOCT1, second ratio column) [2] | IC50 [3] [nM] | Cmax port,unbound (maximal unbound plasma concentration in the portal vein) [4] [nM] | Fraction of dose excreted as unchanged morphine in urine [4] |
| --- | --- | --- | --- | --- | --- | --- | --- |
| CN(C)CCC=C1c2ccccc2CCc2ccccc21 [Amitriptyline, amitriptyline] | 410 ± 50 | 0.02 | 0.005 | 2.28 | 1890 ± 770 | 4300 | – |
| CNCCC(Oc1ccc(C(F)(F)F)cc1)c1ccccc1 (stereo not drawn) [Fluoxetine, fluoxetine] | 3320 ± 760 | 0.003 | 0.001 | 0.08 | 9060 ± 3240 | 700 | – |
| CN(C)CCCN1c2ccccc2CCc2ccccc21 [Imipramine, imipramine] | – | – | – | – | 4030 ± 1620 | 4500 | – |
| CCc1c2c(nc3ccc(OC(=O)N4CCC(N5CCCCC5)CC4)cc13)-c1cc3c(c(=O)n1C2)COC(=O)[C@]3(O)CC [Irinotecan, irinotecan] | – | – | – | – | 1360 ± 430 | – | – |
| Cc1nccn1CC1CCc2c(c3ccccc3n2C)C1=O (stereo not drawn) [Ondansetron, ondansetron] | – | – | – | – | 270 ± 100 | 80 | – |
| CN1CC[C@]23c4c5ccc(O)c4O[C@H]2[C@@H](O)C=C[C@H]3[C@H]1C5 [morphine] | – | – | – | – | – | – | approximately 10% |
